Data published in patent US20240325531A1, “CAR T/NK-CELLS FOR USE IN THE TREATMENT OF INVASIVE FUNGAL INFECTIONS” (UNIVERSITAT DE BARCELONA, priority 2021, published 2024).

What was measured:
[1] = test system: acute panmyelosis with myelofibrosis; experiment: Patient's earlier treatment of relapsed haematological disease; type: in vivo, human; conditions: venetoclax plus azacytidine, after the first two cycles, one patient
Fusarium petroliphilum [2] = experiment: Antifungal resistance tests (MIC) on the patient's mold; type: cell-based; conditions: Fusarium petroliphilum from the patient's skin biopsy; no clinical breakpoints established; read-out: minimum inhibitory concentrations (MIC)
Method: The patient was admitted to the hospital for fever, muscle pain, and polytopic erythematous plaques/nodules on the trunk and extremities, some of them with central pustules. […] Blood cultures were negative. Galactomannan and β-D-glucan were negative. […] Bronchoscopy was performed but all results were negative.

Fusarium petroliphilum [3] = experiment: Treatment of a patient with fusariosis (compassionate, first-in-human use); type: in vivo; conditions: one patient; liposomal amphotericin-B, terbinafine and voriconazole given together, before cell therapy

SMILES | MIC (Fusarium petroliphilum [2]) [µg/mL] | response of haematological disease [1] | clinical course under antifungal drugs (Fusarium petroliphilum [3])
Nc1ncn([C@@H]2O[C@H](CO)[C@@H](O)[C@H]2O)c(=O)n1 [azacytidine] |  | partial response | 
CN(C/C=C/C#CC(C)(C)C)Cc1cccc2ccccc12 [terbinafine] |  |  | remained febrile, with appearance of new skin lesions and mild worsening of the chest CT images

The next lines start with results.

MIC (Fusarium petroliphilum [2]) [µg/mL] | SMILES | response of haematological disease [1] | clinical course under antifungal drugs (Fusarium petroliphilum [3])
> 8 | C[C@@H](c1nc(-c2ccc(C#N)cc2)cs1)[C@](O)(Cn1cncn1)c1cc(F)ccc1F [isavuconazole] |  | 
> 8 | CC[C@@H]([C@H](C)O)n1ncn(-c2ccc(N3CCN(c4ccc(OC[C@@H]5CO[C@@](Cn6cncn6)(c6ccc(F)cc6F)C5)cc4)CC3)cc2)c1=O [posaconazole] |  | 
> 8 | C[C@@H](c1ncncc1F)[C@](O)(Cn1cncn1)c1ccc(F)cc1F [voriconazole] |  | remained febrile, with appearance of new skin lesions and mild worsening of the chest CT images
